The record followed here is patent publication US9422240B2, “Partially saturated nitrogen-containing heterocyclic compound” (TAISHO PHARMACEUTICAL CO., LTD, priority 2012, dated 2016).

The target of the test is human PHD2 (Homo sapiens (Human), UniProt Q9GZT9). Nature of the test: Test 2: human PHD2 inhibitory activity, fluorescence polarization assay of HIF-1α peptide proline hydroxylation. It is filed as biochemical. The conditions noted are these: for pIC50: human PHD2, fluorescence polarization assay, 20-min incubation at 30° C.; for inhibition at 1 µM: test compound's concentration 1 μM, Test 2, fluorescence polarization assay, read-out: Percent inhibition (% at 1 μM). The protocol: (1) Expression and Preparation of Human PHD2
Chain of human PHD2 (Q9GZT9 whole entry): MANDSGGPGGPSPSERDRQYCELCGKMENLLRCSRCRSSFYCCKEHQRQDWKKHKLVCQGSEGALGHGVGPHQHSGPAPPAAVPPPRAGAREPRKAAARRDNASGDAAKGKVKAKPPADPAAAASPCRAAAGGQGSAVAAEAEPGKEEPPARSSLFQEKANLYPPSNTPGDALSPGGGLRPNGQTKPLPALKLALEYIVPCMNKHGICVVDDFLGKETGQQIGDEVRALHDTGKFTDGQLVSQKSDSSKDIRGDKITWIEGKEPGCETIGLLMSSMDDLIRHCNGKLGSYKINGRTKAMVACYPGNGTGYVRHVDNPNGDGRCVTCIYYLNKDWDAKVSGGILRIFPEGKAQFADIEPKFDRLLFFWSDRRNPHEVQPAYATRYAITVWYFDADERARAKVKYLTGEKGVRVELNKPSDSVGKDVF
A registered sequence of human PHD2 (NM_022051) was introduced into pcDNA3.1/Hygro(+) vector (Invitrogen), and the sequence was verified. […] The suspension of disrupted cells was centrifuged at 4° C. and 100,000×g for 30 minutes and the supernatant was recovered as a cell lysate.
(2) Measurement of Human PHD2 Inhibitory Activity
The activity of human PHD2 enzyme was measured with a substrate which is a 19-residue partial peptide based on the sequence of HIF-1α; specifically, the hydroxylation of a proline residue in the peptide was measured by FP (Fluorescence Polarization).
A test compound and the substrate solution were preliminarily added onto 384-well plates and reaction was initiated by adding a human PHD2 enzyme solution (40 ng/well). After 20-min incubation at 30° C., an EDTA-containing quench solution was added and the amount of the proline residues hydroxylated via binding to an added HIF—OH antibody solution was quantified by fluorescence polarization.
The fluorescence polarization of each well was measured and the human PHD2 inhibitory activity of each test compound was calculated on the basis of the values for the test compound-free group.
In general terms: In fluorescence polarisation assays a small probe gives low polarisation when free and higher when bound to something large.

pIC50: −log10 of the molar value.

The pIC50 is the IC50 on a negative log10 scale, so that one unit is a factor of ten. Higher therefore signals a low IC50. What is called inhibition is the relative decrease from the control value, in per cent. Turning to `O=C(O)CNC(=O)C1=C(O)CCN(Cc2ccc(Oc3ncccn3)cc2)C1=O` [Ex. 1-226], the pIC50 was 6.39 and the inhibition at 1 µM was determined as 84%. Take `O=C(O)CNC(=O)C1=C(O)CCN(CC2CCN(C(=O)OCc3ccccc3)CC2)C1=O` [Ex. 1-248]: the inhibition at 1 µM came to 94%. On the same count and under the same terms, the figure for `O=C(O)CNC(=O)C1=C(O)CCNC1=O` [Ex. 1-308] is 41%; for `CN1CCC(O)=C(C(=O)NCC(=O)O)C1=O` [Ex. 1-309] it is 58%. `O=C(O)CNC(=O)C1=C(O)CC2(CCCCC2)CN(Cc2ccccc2)C1=O` [Ex. 1-310]: the inhibition at 1 µM is 59%. For the molecule `O=C(O)CNC(=O)C1=C(O)CC2(CCNCC2)N(Cc2ccc(-c3ccccc3)cc2)C1=O` [Ex. 1-311], the inhibition at 1 µM came to 83%.

On to `O=C(O)CNC(=O)C1=C(O)CC2(CCCCC2)CN(Cc2ccc(-c3ccccc3)cc2)C1=O` [Ex. 1-312], for which the inhibition at 1 µM came to 86%. `O=C(O)CNC(=O)C1=C(O)CC2(CNC2)N(Cc2ccc(-c3ccccc3)cc2)C1=O` [Ex. 1-313]: the inhibition at 1 µM turned out to be 96%.

Consider `O=C(O)CNC(=O)C1=C(O)CC2(CNC(=O)C2)N(Cc2ccc(-c3ccccc3)cc2)C1=O` (stereo not shown) [Ex. 1-314], for which the inhibition at 1 µM was 86%.

Consider `CN1CC2(CC1=O)CC(O)=C(C(=O)NCC(=O)O)C(=O)N2Cc1ccc(-c2ccccc2)cc1` (stereo not shown) [Ex. 1-315], for which the inhibition at 1 µM was determined as 81%. Same read-out and setting: as for `O=C(O)CNC(=O)C1=C(O)CCN(Cc2ccc(-c3cncnc3)cc2)C1=O` [Ex. 1-316], the figure is 87%.

On to `CCCCCCCCCN1CCC(O)=C(C(=O)NCC(=O)O)C1=O` [Ex. 1-317], for which the inhibition at 1 µM worked out at 85%. Take `O=C(O)CNC(=O)C1=C(O)CN(Cc2ccc(-c3ccccc3)cc2)C1=O` [Ex. 1-318]: the inhibition at 1 µM was determined as 96%. Take `CC(C)CN1CCC(O)=C(C(=O)NCC(=O)O)C1=O` [Ex. 1-319]: the inhibition at 1 µM is 42%. As to `O=C(O)CNC(=O)C1=C(O)CCN(Cc2cncnc2)C1=O` [Ex. 1-320], the inhibition at 1 µM turned out to be 57%.

Regarding `O=C(O)CNC(=O)C1=C(O)CCN(Cc2ccc(C(=O)N3CCCCC3)cc2)C1=O` [Ex. 1-321], the inhibition at 1 µM came out at 84%. Still for that read-out and setting: the figure for `CCCNC(=O)c1ccc(CN2CCC(O)=C(C(=O)NCC(=O)O)C2=O)cc1` [Ex. 1-322] is 77%; for `CC1C(O)=C(C(=O)NCC(=O)O)C(=O)N1Cc1ccc(-c2ccccc2)cc1` (stereo not shown) [Ex. 1-323] it is 87%; for `CC1(C)C(O)=C(C(=O)NCC(=O)O)C(=O)N1Cc1ccc(-c2ccccc2)cc1` [Ex. 1-324] it is 91%. `O=C(O)CNC(=O)C1=C(O)C2(CCCCC2)N(Cc2ccc(-c3ccccc3)cc2)C1=O` [Ex. 1-325]: the inhibition at 1 µM was found to be 90%. Turning to `O=C(O)CNC(=O)C1=C(O)C(c2ccccc2)N(Cc2ccc(-c3ccccc3)cc2)C1=O` (stereo not shown) [Ex. 1-326], the inhibition at 1 µM was 71%. For `CS(=O)(=O)c1ccc(CN2CCC(O)=C(C(=O)NCC(=O)O)C2=O)cc1` [Ex. 1-327], the inhibition at 1 µM amounted to 81%. Consider `CS(=O)(=O)c1ccc(CN2C(=O)C(C(=O)NCC(=O)O)=C(O)CC23CCCCC3)cc1` [Ex. 1-328], for which the inhibition at 1 µM came out at 63%. `O=C(O)CNC(=O)C1=C(O)C2(CCCCC2)N(Cc2ccc(-c3ccc(C(F)(F)F)cc3)cc2)C1=O` [Ex. 1-329]: the inhibition at 1 µM was 87%.

With `CC(C)(C)c1ccc(-c2ccc(CN3C(=O)C(C(=O)NCC(=O)O)=C(O)C34CCCCC4)cc2)cc1` [Ex. 1-330], the inhibition at 1 µM worked out at 69%. For `CS(=O)(=O)c1ccc(CN2CC3(CCCCC3)C(O)=C(C(=O)NCC(=O)O)C2=O)cc1` [Ex. 1-331], the inhibition at 1 µM was 75%. For `O=C(O)CNC(=O)C1=C(O)C2(CCCCC2)N(CC2CCC(c3ccccc3)CC2)C1=O` (stereo not shown) [Ex. 1-332], the inhibition at 1 µM was found to be 73%.

On to `Cc1ccc(Oc2ncc(CN3CCC(O)=C(C(=O)NCC(=O)O)C3=O)cc2C)cn1` [Ex. 1-333], for which the pIC50 was 7.04 and the inhibition at 1 µM came to 91%. With `O=C(O)CNC(=O)C1=C(O)C(F)(F)CN(Cc2ccc(C(F)(F)F)cc2)C1=O` [Ex. 1-334], the inhibition at 1 µM is 96%. Same read-out and setting: the figure for `O=C(O)CNC(=O)C1=C(O)CCN(Cc2ccc(C(=O)O)cc2)C1=O` [Ex. 1-335] is 73%; for `O=C(O)CNC(=O)C1=C(O)CCN(Cc2ccc(-c3cccnc3)cn2)C1=O` [Ex. 1-336] it is 82%. Consider `Cn1cc(CN2CCC(O)=C(C(=O)NCC(=O)O)C2=O)cn1` [Ex. 1-337], for which the inhibition at 1 µM is 66%. Regarding `O=C(O)CNC(=O)C1=C(O)CCN(Cc2cnc(C(F)(F)F)nc2)C1=O` [Ex. 1-338], the inhibition at 1 µM came out at 71%.

Take `Cc1nc(CN2CCC(O)=C(C(=O)NCC(=O)O)C2=O)c[nH]1` [Ex. 1-339]: the inhibition at 1 µM came to 40%.

In the case of `O=C(O)CNC(=O)C1=C(O)CCN(Cc2cnc(N3CCOCC3)s2)C1=O` [Ex. 1-340], the inhibition at 1 µM was 69%. In the case of `Cc1csc(CN2CCC(O)=C(C(=O)NCC(=O)O)C2=O)n1` [Ex. 1-341], the inhibition at 1 µM was 66%. Take `CN1CCN(c2ccc(CN3CCC(O)=C(C(=O)NCC(=O)O)C3=O)cc2)CC1` [Ex. 1-342]: the inhibition at 1 µM turned out to be 57%.

Consider `CN(C)CCCOc1ccc(CN2CCC(O)=C(C(=O)NCC(=O)O)C2=O)cc1` [Ex. 1-343], for which the inhibition at 1 µM stood at 51%. For `O=C(O)CNC(=O)C1=C(O)CCN(Cc2ccc(OCCO)cc2)C1=O` [Ex. 1-344], the inhibition at 1 µM turned out to be 76%. On the same count and under the same terms, as for `CN(C)CCNC(=O)c1ccc(CN2CCC(O)=C(C(=O)NCC(=O)O)C2=O)cc1` [Ex. 1-345], the figure is 55%; as for `O=C(O)CNC(=O)C1=C(O)CCN(Cc2ccc(OCC(=O)O)cc2)C1=O` [Ex. 1-346], 80%. On the same count and under the same terms, the figure for `O=C(O)CNC(=O)C1=C(O)CCN(Cc2ccc(C(=O)NCCO)cc2)C1=O` [Ex. 1-347] is 55%. In the case of `O=C(O)CNC(=O)C1=C(O)CCN(Cc2ccc(C(=O)NCc3ccccn3)cc2)C1=O` [Ex. 1-348], the inhibition at 1 µM worked out at 76%.

Turning to `O=C(O)CNC(=O)C1=C(O)CCN(Cc2ccc(C(=O)NCCc3ccccn3)cc2)C1=O` [Ex. 1-349], the inhibition at 1 µM was found to be 74%. Turning to `O=C(O)CNC(=O)C1=C(O)CCN(Cc2ccc(C(=O)NCCN3CCCC3=O)cc2)C1=O` [Ex. 1-350], the inhibition at 1 µM was determined as 61%.

As to `O=C(O)CNC(=O)C1=C(O)CCN(Cc2ccc(C(=O)NCC(=O)O)cc2)C1=O` [Ex. 1-351], the inhibition at 1 µM was 81%. As to `O=C(O)CNC(=O)C1=C(O)CCN(C[C@H]2C[C@@H]2c2ccc(F)cc2)C1=O` [Ex. 1-352], the inhibition at 1 µM was 91%.

On to `COc1cccc(Oc2ccc(CN3CCC(O)=C(C(=O)NCC(=O)O)C3=O)cn2)c1` [Ex. 1-354], for which the pIC50 is 7.21 and the inhibition at 1 µM stood at 96%. For `O=C(O)CNC(=O)C1=C(O)CCN(Cc2ccc(Oc3ccc(C(F)(F)F)cc3)cn2)C1=O` [Ex. 1-356], the pIC50 is 7.22 and the inhibition at 1 µM amounted to 96%. Turning to `O=C(O)CNC(=O)C1=C(O)C2(CCC2)CN(Cc2ccc(OC(F)(F)F)c(Cl)c2)C1=O` [Ex. 1-357], the inhibition at 1 µM was determined as 74%. As to `COc1ccc(-c2ccc(CN3CC(C)(C)C(O)=C(C(=O)NCC(=O)O)C3=O)cc2)cn1` [Ex. 1-358], the inhibition at 1 µM turned out to be 88%. Turning to `CC1(C)CN(Cc2ccc(OC3CC3)cc2)C(=O)C(C(=O)NCC(=O)O)=C1O` [Ex. 1-359], the inhibition at 1 µM amounted to 69%.

Take `COc1ccc(-c2ccc(CN3CC4(CCC4)C(O)=C(C(=O)NCC(=O)O)C3=O)cc2)cn1` [Ex. 1-361]: the inhibition at 1 µM came out at 93%. Turning to `CC1(C)CN(Cc2ccc(C3CC3)cc2)C(=O)C(C(=O)NCC(=O)O)=C1O` [Ex. 1-362], the inhibition at 1 µM turned out to be 83%. `O=C(O)CNC(=O)C1=C(O)C2(CCC2)CN(Cc2ccc(OC3CC3)cc2)C1=O` [Ex. 1-363]: the inhibition at 1 µM amounted to 77%.

Consider `Cc1cccc(COc2ccc(CN3CCC(O)=C(C(=O)NCC(=O)O)C3=O)cc2)c1` [Ex. 1-364], for which the inhibition at 1 µM is 97%. `O=C(O)CNC(=O)C1=C(O)CCN(Cc2ccc(Oc3ccc(C(F)(F)F)nc3)cc2)C1=O` [Ex. 1-365]: the pIC50 is 7.25 and the inhibition at 1 µM is 97%. Take `Cc1ccc(Oc2ccc(CN3CCC(O)=C(C(=O)NCC(=O)O)C3=O)cn2)cc1Cl` [Ex. 1-366]: the pIC50 was 7.72 and the inhibition at 1 µM turned out to be 103%. Take `Cc1ccc(Oc2ccc(CN3CCC(O)=C(C(=O)NCC(=O)O)C3=O)cn2)cc1F` [Ex. 1-367]: the pIC50 is 7.59 and the inhibition at 1 µM was determined as 105%.

Regarding `Cc1cc(Oc2ccc(CN3CCC(O)=C(C(=O)NCC(=O)O)C3=O)cn2)ccc1F` [Ex. 1-368], the pIC50 is 7.39 and the inhibition at 1 µM was found to be 101%.

On to `O=C(O)CNC(=O)C1=C(O)CCN(Cc2ccc(OCc3ccccc3Cl)cc2)C1=O` [Ex. 1-369], for which the inhibition at 1 µM came to 98%.

On to `CC1(COc2ccc(CN3CCC(O)=C(C(=O)NCC(=O)O)C3=O)cc2)CC1` [Ex. 1-370], for which the inhibition at 1 µM came to 84%. As to `O=C(O)CNC(=O)C1=C(O)CCN(CC2CC(c3ccc(F)cc3)C2)C1=O` (stereo not shown) [Ex. 1-371], the inhibition at 1 µM came to 90%. Same read-out and setting: as for `O=C(O)CNC(=O)C1=C(O)CCN(Cc2ccc(OCc3cccnc3)cc2)C1=O` [Ex. 1-372], the figure is 89%; as for `Cc1cccc(COc2ccc(CN3CCC(O)=C(C(=O)NCC(=O)O)C3=O)cc2)n1` [Ex. 1-373], 85%.
